Results as given in patent US12077503B2, “Substituted cyclic amides and their use as herbicides” (FMC CORPORATION, priority 2015, dated 2024).

Columns and labels:
Type in all cases: in vivo
Kochia (Kochia scoparia) [1] = assay: Test A preemergence; conditions: Bassia scoparia, pre-emergence, 240 h, Preemergence
Outline: (§1)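 Compounds were formulated in a non-phytotoxic solvent mixture with surfactant and applied as a preemergence directed soil spray after seeding, or sprayed postemergence over plants 2 to 10 cm tall at the one- to two-leaf stage. Evaluation after about 10 d compared treated with untreated controls, using a scale from 0 (no effect) to 100 (complete control).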

[2] = tested on: barnyardgrass (Echinochloa crus-galli); assay: Test A preemergence; conditions: Echinochloa crus-galli, pre-emergence, 240 h, Preemergence
Outline: as §1

[3] = tested on: giant foxtail (Setaria faberii); assay: Test A preemergence; conditions: Setaria faberi, pre-emergence, 240 h, Preemergence
Outline: as §1

[4] = tested on: pigweed (Amaranthus retroflexus); assay: Test A preemergence; conditions: Amaranthus retroflexus, pre-emergence, 240 h, Preemergence
[5] = tested on: ragweed (common ragweed, Ambrosia elatior); assay: Test A preemergence; conditions: Ambrosia artemisiifolia, pre-emergence, 240 h, Preemergence
Outline: as §1

[6] = tested on: ryegrass, Italian (Italian ryegrass, Lolium multiflorum); assay: Test A preemergence; conditions: Lolium multiflorum, pre-emergence, 240 h, Preemergence
Outline: as §1

[7] = tested on: Galium (catchweed bedstraw, Galium aparine); assay: Test A postemergence; conditions: Galium, post-emergence, 240 h
Outline: as §1

Kochia (Kochia scoparia) [8] = assay: Test A postemergence; conditions: Bassia scoparia, post-emergence, 240 h
Outline: as §1

[9] = tested on: barnyardgrass (Echinochloa crus-galli); assay: Test A postemergence; conditions: Echinochloa crus-galli, post-emergence, 240 h
Outline: as §1

[10] = tested on: blackgrass (Alopecurus myosuroides); assay: Test A postemergence; conditions: Alopecurus myosuroides, post-emergence, 240 h
Outline: as §1

corn (Zea mays) = assay: Test A postemergence; conditions: Zea mays, post-emergence, 240 h
Outline: as §1

[11] = tested on: giant foxtail (Setaria faberii); assay: Test A postemergence; conditions: Setaria faberi, post-emergence, 240 h
Outline: as §1

[12] = tested on: pigweed (Amaranthus retroflexus); assay: Test A postemergence; conditions: Amaranthus retroflexus, post-emergence, 240 h
Outline: as §1

[13] = tested on: ragweed (common ragweed, Ambrosia elatior); assay: Test A postemergence; conditions: Ambrosia artemisiifolia, post-emergence, 240 h
Outline: as §1

[14] = tested on: ryegrass, Italian (Italian ryegrass, Lolium multiflorum); assay: Test A postemergence; conditions: Lolium multiflorum, post-emergence, 240 h
Outline: as §1

[15] = tested on: wheat (Triticum aestivum); assay: Test A postemergence; conditions: Triticum aestivum, post-emergence, 240 h
Outline: as §1

[16] = tested on: barnyardgrass (Echinochloa crus-galli); assay: Test B flooded paddy test; conditions: Echinochloa crus-galli, 250 g ai/ha, Flood; 0 to 100 scale where 0 is no effect and 100 is complete control; read-out: Barnyardgrass plant response rating
Outline: (§2)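 Evaluation by eye, against controls, occurred 13–15 d post-treatment in a greenhouse, using a 0 (no effect) to 100 (complete control) scale. Application was into the paddy water, 3 cm deep over the soil, on 2-leaf plants.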

[17] = tested on: ducksalad (Heteranthera limosa); assay: Test B flooded paddy test; conditions: Heteranthera limosa, 250 g ai/ha, Flood; 0 to 100 scale where 0 is no effect and 100 is complete control; read-out: Ducksalad plant response rating
Outline: as §2

rice (Oryra sativa) = assay: Test B flooded paddy test; conditions: Oryza sativa, 250 g ai/ha, Flood; 0 to 100 scale where 0 is no effect and 100 is complete control; read-out: Rice plant response rating
Outline: as §2

[18] = tested on: sedge, umbrella (small-flower umbrella sedge, Cyperus difformis); assay: Test B flooded paddy test; conditions: Cyperus difformis, 250 g ai/ha, Flood; 0 to 100 scale where 0 is no effect and 100 is complete control; read-out: Sedge, Umbrella plant response rating
Outline: as §2

Question: Which results are given for `CSc1ccccc1NC(=O)[C@H]1C(=O)N(C)C[C@@H]1c1ccc(C(F)(F)F)cn1` [Compound 1051]?
Answer: pest or weed control at 31 g/ha (Kochia (Kochia scoparia) [1]; 31 g ai/ha, 0 to 100 scale where 0 is no effect and 100 is complete control, read-out: Kochia plant response rating): 0%; pest or weed control at 125 g/ha (Kochia (Kochia scoparia) [1]; 125 g ai/ha, visual injury rating after approximately 10 d, read-out: Kochia plant response rating (0 to 100 scale, 0 is no effect, 100 is complete control)): 0%; pest or weed control at 125 g/ha ([2]; 125 g ai/ha, visual injury rating after approximately 10 d, read-out: Barnyardgrass plant response rating (0 to 100 scale, 0 is no effect, 100 is complete control)): 20%; pest or weed control at 31 g/ha ([2]; 31 g ai/ha, 0 to 100 scale (0 no effect, 100 complete control), read-out: Plant response rating, Barnyardgrass): 0%; pest or weed control at 125 g/ha ([3]; 125 g ai/ha, visual injury rating after approximately 10 d, read-out: Foxtail, Giant plant response rating (0 to 100 scale, 0 is no effect, 100 is complete control)): 90%; pest or weed control at 31 g/ha ([3]; 31 g ai/ha, 0 to 100 scale (0 no effect, 100 complete control), read-out: Plant response rating, Foxtail, Giant): 30%; pest or weed control at 31 g/ha ([4]; 31 g ai/ha, 0 to 100 scale where 0 is no effect and 100 is complete control, read-out: Pigweed plant response rating): 0%; pest or weed control at 125 g/ha ([4]; 125 g ai/ha, visual injury rating after approximately 10 d, read-out: Pigweed plant response rating (0 to 100 scale, 0 is no effect, 100 is complete control)): 40%; pest or weed control at 31 g/ha ([5]; 31 g ai/ha, 0 to 100 scale where 0 is no effect and 100 is complete control, read-out: Ragweed plant response rating): 0%; pest or weed control at 125 g/ha ([5]; 125 g ai/ha, visual injury rating after approximately 10 d, read-out: Ragweed plant response rating (0 to 100 scale, 0 is no effect, 100 is complete control)): 0%; pest or weed control at 31 g/ha ([6]; 31 g ai/ha, 0 to 100 scale where 0 is no effect and 100 is complete control, read-out: Ryegrass, Italian plant response rating): 0%; pest or weed control at 125 g/ha ([6]; 125 g ai/ha, visual injury rating after approximately 10 d, read-out: Ryegrass, Italian plant response rating (0 to 100 scale, 0 is no effect, 100 is complete control)): 0%; pest or weed control at 125 g/ha ([7]; 125 g ai/ha, postemergence, visual injury on 0 to 100 scale (0 no effect, 100 complete control), approx. 10 d, read-out: Galium plant response rating): 50%; pest or weed control at 31 g/ha ([7]; Postemergence, 31 g ai/ha, visual injury after approx. 10 d, 0 to 100 scale, 0 no effect, 100 complete control, read-out: Plant response rating, Galium): 30%; pest or weed control at 125 g/ha (Kochia (Kochia scoparia) [8]; 125 g ai/ha, postemergence, visual injury on 0 to 100 scale (0 no effect, 100 complete control), approx. 10 d, read-out: Kochia plant response rating): 0%; pest or weed control at 31 g/ha (Kochia (Kochia scoparia) [8]; Postemergence, 31 g ai/ha, visual injury after approx. 10 d, 0 to 100 scale, 0 no effect, 100 complete control, read-out: Plant response rating, Kochia): 0%; pest or weed control at 125 g/ha ([9]; 125 g ai/ha, postemergence, visual injury on 0 to 100 scale (0 no effect, 100 complete control), approx. 10 d, read-out: Barnyardgrass plant response rating): 0%; pest or weed control at 31 g/ha ([9]; Postemergence, 31 g ai/ha, visual injury after approx. 10 d, 0 to 100 scale, 0 no effect, 100 complete control, read-out: Plant response rating, Barnyardgrass): 0%; pest or weed control at 125 g/ha ([10]; 125 g ai/ha, postemergence, visual injury on 0 to 100 scale (0 no effect, 100 complete control), approx. 10 d, read-out: Blackgrass plant response rating): 0%; pest or weed control at 31 g/ha ([10]; Postemergence, 31 g ai/ha, visual injury after approx. 10 d, 0 to 100 scale, 0 no effect, 100 complete control, read-out: Plant response rating, Blackgrass): 0%; plant injury at 125 g/ha (corn (Zea mays); 125 g ai/ha, postemergence, visual injury on 0 to 100 scale (0 no effect, 100 complete control), approx. 10 d, read-out: Corn plant response rating): 0%; Corn plant response rating (crop injury, 0 = no effect, 100 = complete kill) at 31 g/ha (corn (Zea mays); Postemergence, 31 g ai/ha, visual injury after approx. 10 d, 0 to 100 scale, 0 no effect, 100 complete control): 0%; pest or weed control at 125 g/ha ([11]; 125 g ai/ha, postemergence, visual injury on 0 to 100 scale (0 no effect, 100 complete control), approx. 10 d, read-out: Foxtail, Giant plant response rating): 0%; pest or weed control at 31 g/ha ([11]; Postemergence, 31 g ai/ha, visual injury after approx. 10 d, 0 to 100 scale, 0 no effect, 100 complete control, read-out: Plant response rating, Foxtail, Giant): 0%; pest or weed control at 125 g/ha ([12]; 125 g ai/ha, postemergence, visual injury on 0 to 100 scale (0 no effect, 100 complete control), approx. 10 d, read-out: Pigweed plant response rating): 0%; pest or weed control at 31 g/ha ([12]; Postemergence, 31 g ai/ha, visual injury after approx. 10 d, 0 to 100 scale, 0 no effect, 100 complete control, read-out: Plant response rating, Pigweed): 0%; pest or weed control at 125 g/ha ([13]; 125 g ai/ha, postemergence, visual injury on 0 to 100 scale (0 no effect, 100 complete control), approx. 10 d, read-out: Ragweed plant response rating): 0%; pest or weed control at 31 g/ha ([13]; Postemergence, 31 g ai/ha, visual injury after approx. 10 d, 0 to 100 scale, 0 no effect, 100 complete control, read-out: Plant response rating, Ragweed): 0%; pest or weed control at 125 g/ha ([14]; 125 g ai/ha, postemergence, visual injury on 0 to 100 scale (0 no effect, 100 complete control), approx. 10 d, read-out: Ryegrass, Italian plant response rating): 0%; pest or weed control at 31 g/ha ([14]; Postemergence, 31 g ai/ha, visual injury after approx. 10 d, 0 to 100 scale, 0 no effect, 100 complete control, read-out: Plant response rating, Ryegrass, Italian): 0%; plant injury at 125 g/ha ([15]; 125 g ai/ha, postemergence, visual injury on 0 to 100 scale (0 no effect, 100 complete control), approx. 10 d, read-out: Wheat plant response rating): 0%; plant injury at 31 g/ha ([15]; Postemergence, 31 g ai/ha, visual injury after approx. 10 d, 0 to 100 scale, 0 no effect, 100 complete control, read-out: Plant response rating, Wheat): 0%; pest or weed control at 250 g/ha [16]: 0%; pest or weed control at 250 g/ha [17]: 75%; pest or weed control at 250 g/ha (rice (Oryra sativa)): 0%; pest or weed control at 250 g/ha [18]: 0%
